From patent US11655208B2, “1-carboxy-2-hydroxy-3-iminopropane and extraction method thereof” (Jiangnan University, priority 2020, dated 2023) come the findings set out here.

The structures appear in SMILES notation.

Type in all cases: in vivo
In experiment [1] the test system is male ICR mice. Description: Open field test. To be noted: for Movement speed / Movement time / Stay time in the middle area: mice, gavage for 14 days, within 10 minutes, x ± s. As to the method: (§1) 30 SPF-level 4-week-old male ICR (Institute of Cancer Research) mice were adaptively reared for 1 week and then randomly divided into 3 groups with 10 mice in each group. An experimental group and a blank group were given an aqueous solution of the 1-carboxy-2-hydroxy-3-iminopropane and water at a dose of 1.0 g/kg·bw by gavage respectively, and a positive control group was given an aqueous solution of estazolam at a dose of 2 mg/kg·bw by the gavage. After continuous gavage for 14 days, tests were carried out. The tests were carried out around 25° C. in a quiet environment.
An open field maze of 4 units (each unit 50 cm×50 cm×38 cm) consisting of 4 activity spaces were used in the test, and 4 mice were tested each time. The open field spaces were cleaned with alcohol before the test, and the test was started 30 minutes after a sample group was administered (15 minutes after a positive control group was administered). During the test, tails of the mice were gently grasped, and the mice were placed in the middle of each unit of the open field maze for adaption for 5 minutes. A software start button was clicked to activate software for tracking moving paths of the mice. With an average movement speed, a movement time and a stay time in the middle area within 10 minutes as indexes, data analysis was conducted by using EthoVision XT 11 software. After each test was completed, urine and feces were cleaned, and a bottom and an inner wall of the maze were sprayed with 5-10% ethanol and then wiped with paper to remove an odor left by the mice. Then, a next group of the mice was tested, and influence of the odor and residue on the next group of the mice was avoided.

Experiment [2] has as its system male ICR mice. Description: Pentobarbital sodium induced sleep test. Also noted: Sleep duration period: unit not given here. The procedure:
as §1
Before the test, a preliminary test was carried out to determine a dose of pentobarbital sodium by intraperitoneal injection. After the intraperitoneal injection, the dose when all mice fell asleep for a moderate time was used as a standard, and the test was carried out with this dose (50 mg/kg·bw). 30 minutes after the last gavage, the mice were given the pentobarbital sodium by intraperitoneal injection to induce sleep. The time from injection of the pentobarbital sodium to disappearance of a righting reflex was recorded as a sleep latency period of the mice. The time from the disappearance of the righting reflex to reappearance of the righting reflex was recorded as a […] of the mice. Whether or not the latency period of each group was shortened and whether or not the sleep time was prolonged were observed.

Experiment [3] has as its system male ICR mice. Kind of experiment: Direct sleep observation test. To be noted: for 12 h sleep duration period: mice, sleep time within 12 hours after the gavage, x ± s. The procedure:
as §1
After the open field test was completed, a direct sleep observation test was carried out the next night. 30 minutes after the gavage, a surveillance camera was used for observation, and a sleep time of the mice in each group within 12 hours after the gavage was recorded.

Setting [4] is: mice, pentobarbital sodium 50 mg/kg·bw i.p. 30 minutes after the last gavage, x ± s.
Where [5] appears, read: pentobarbital sodium induced sleep, vs blank group, P<0.05.

Take `N=CC(O)CC(=O)O` (centres unmarked) [1-carboxy-2-hydroxy-3-iminopropane]: in experiment [1], the Movement speed turned out to be 4.66 ± 1.14 cm/s, the Movement time stood at 333.76 ± 56.84 s and the “Stay time in the middle area” value was 17.81 ± 5.14 %. In experiment [1] (vs blank group, P<0.01), the “effect on stay time in the middle area of the mice (in words)” value is reported as “significantly increased”. In experiment [1] (vs blank group, P<0.05), the “effect on movement speed of the mice (in words)” value is “significantly reduced” and the “effect on movement time of the mice (in words)” value is recorded as “significantly reduced”. In experiment [2] (setting [4]), the Latency period turned out to be 3.60 ± 0.368 s and the Sleep duration period is listed as 34.73 ± 12.71. Further, in experiment [2] (setting [5]), the “sleep duration period prolonged by” value is 61.49% and the “sleep latency period shortened by” value was determined as 24.62%. The “12 h sleep duration period” value in experiment [3] is reported as 374.33 ± 24.48 min. Besides, the “total sleep duration period within 12 hours (in words)” value in experiment [3] (vs blank group, P<0.05) is listed as “longer than that of the blank group”.
As for `Clc1ccc2c(c1)C(c1ccccc1)=NCc1nncn1-2` [estazolam, reference compound], in experiment [1], the Movement speed was 4.60 ± 0.96 cm/s, the Movement time is given as 325.85 ± 51.64 s and the “Stay time in the middle area” value is on record as 20.63 ± 9.01 %. The same compound yielded a Latency period in experiment [2] (setting [4]) of 2.81 ± 0.57 s. Besides, the “12 h sleep duration period” value in experiment [3] is listed as 404.10 ± 34.03 min.
